Where a SMILES comes first, the peptide text is derived from it. Bridges are numbered along the chain shown (N, C = ends). [ ]: non-standard residue; d: D form. Phe(2-CF3) = N[C@@H](Cc1ccccc1C(F)(F)F)C(=O)O; Phe(3-CN) = N#Cc1cccc(C[C@H](N)C(=O)O)c1; Phe(4-CN) = N#Cc1ccc(C[C@H](N)C(=O)O)cc1; Phe(2-CN) = N#Cc1ccccc1C[C@H](N)C(=O)O; Phe(3-F) = N[C@@H](Cc1cccc(F)c1)C(=O)O; Phe(2-F) = N[C@@H](Cc1ccccc1F)C(=O)O; Phe(2-Me) = Cc1ccccc1C[C@H](N)C(=O)O; hArg = N=C(N)NCCCC[C@H](N)C(=O)O; 2Pal = N[C@@H](Cc1ccccn1)C(=O)O; Cha = N[C@@H](CC1CCCCC1)C(=O)O; Agb = N=C(N)NCC[C@H](N)C(=O)O
Biological target: T1, Coagulation factor XII (Homo sapiens, UniProt P00748)
T1 sequence (P00748 whole entry): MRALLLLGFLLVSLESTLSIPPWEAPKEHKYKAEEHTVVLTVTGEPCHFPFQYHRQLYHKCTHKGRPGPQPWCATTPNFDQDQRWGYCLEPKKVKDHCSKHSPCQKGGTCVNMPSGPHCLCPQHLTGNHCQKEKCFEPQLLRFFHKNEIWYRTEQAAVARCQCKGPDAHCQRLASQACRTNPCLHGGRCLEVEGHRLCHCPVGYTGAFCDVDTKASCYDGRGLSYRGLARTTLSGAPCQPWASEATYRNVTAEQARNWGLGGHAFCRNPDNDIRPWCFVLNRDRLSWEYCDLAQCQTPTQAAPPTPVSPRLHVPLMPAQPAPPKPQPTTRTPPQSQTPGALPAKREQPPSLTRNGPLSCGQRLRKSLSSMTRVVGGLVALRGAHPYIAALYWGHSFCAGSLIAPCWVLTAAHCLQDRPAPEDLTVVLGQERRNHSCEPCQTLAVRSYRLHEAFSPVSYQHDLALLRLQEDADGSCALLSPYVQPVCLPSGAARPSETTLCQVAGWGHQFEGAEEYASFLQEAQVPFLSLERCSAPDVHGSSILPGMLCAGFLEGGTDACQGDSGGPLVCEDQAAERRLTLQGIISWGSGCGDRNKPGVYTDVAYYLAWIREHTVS
Test: Inhibition of human factor 12a using H-D-Pro-Phe-Arg-p-nitroanilide as chromogenic substrate assessed as liberation of p-nitroaniline measured every 5 mins for 60 min by multimode plate reader analysis

IC50 [nM]	Compound
530	COc1ccc(C[C@@H]2NC(=O)CSC[C@@H](C(N)=O)NC(=O)CNC(=O)CNC(=O)[C@H](CCCNC(=N)N)NC(=O)[C@H](CC(=O)O)NC(=O)[C@H](CCCCN)NC(=O)[C@@H]3CCCN3C(=O)[C@H](CCCNC(=N)N)NC(=O)[C@H](Cc3ccccc3)NC(=O)[C@H](CCCNC(=N)N)NC(=O)[C@H](CC(C)C)NC2=O)cc1 ({CH2CO}-Y(Me)LRFRPKDRGGC-NH2; thioether N-12)
53	CC(C)C[C@@H]1NC(=O)[C@H](Cc2ccc(O)cc2)NC(=O)CSC[C@@H](C(N)=O)NC(=O)CNC(=O)CNC(=O)[C@H](CCCNC(=N)N)NC(=O)[C@H](CC(=O)O)NC(=O)[C@H](CCCCN)NC(=O)[C@@H]2CCCN2C(=O)[C@H](CCCNC(=N)N)NC(=O)[C@H](CC2CCCCC2)NC(=O)[C@H](CCCNC(=N)N)NC1=O ({CH2CO}-YLR[Cha]RPKDRGGC-NH2; thioether N-12)
260	CC(C)C[C@@H]1NC(=O)[C@H](Cc2ccc(O)cc2)NC(=O)CSC[C@@H](C(N)=O)NC(=O)CNC(=O)CNC(=O)[C@H](CCCNC(=N)N)NC(=O)[C@H](CC(=O)O)NC(=O)[C@H](CCCCN)NC(=O)[C@H](C)NC(=O)[C@H](CCCNC(=N)N)NC(=O)[C@H](Cc2ccccc2)NC(=O)[C@H](CCCNC(=N)N)NC1=O ({CH2CO}-YLRFRAKDRGGC-NH2; thioether N-12)
8100	CC(C)C[C@@H]1NC(=O)[C@H](Cc2ccc(C#N)cc2)NC(=O)CSC[C@@H](C(N)=O)NC(=O)CNC(=O)CNC(=O)[C@H](CCCNC(=N)N)NC(=O)[C@H](CC(=O)O)NC(=O)[C@H](CCCCN)NC(=O)[C@@H]2CCCN2C(=O)[C@H](CCCNC(=N)N)NC(=O)[C@H](Cc2ccccc2)NC(=O)[C@H](CCCNC(=N)N)NC1=O ({CH2CO}-[Phe(4-CN)]LRFRPKDRGGC-NH2; thioether N-12)
11000	CC(C)C[C@@H]1NC(=O)[C@H](Cc2ccccn2)NC(=O)CSC[C@@H](C(N)=O)NC(=O)CNC(=O)CNC(=O)[C@H](CCCNC(=N)N)NC(=O)[C@H](CC(=O)O)NC(=O)[C@H](CCCCN)NC(=O)[C@@H]2CCCN2C(=O)[C@H](CCCNC(=N)N)NC(=O)[C@H](Cc2ccccc2)NC(=O)[C@H](CCCNC(=N)N)NC1=O ({CH2CO}-[2Pal]LRFRPKDRGGC-NH2; thioether N-12)
96	CC(C)C[C@@H]1NC(=O)[C@H](Cc2ccc(O)cc2)NC(=O)CSC[C@@H](C(N)=O)NC(=O)CNC(=O)CNC(=O)[C@H](CCCNC(=N)N)NC(=O)[C@H](CC(=O)O)NC(=O)[C@H](CCCCN)NC(=O)[C@@H]2CCCN2C(=O)[C@H](CCCNC(=N)N)NC(=O)[C@H](Cc2ccccn2)NC(=O)[C@H](CCCNC(=N)N)NC1=O ({CH2CO}-YLR[2Pal]RPKDRGGC-NH2; thioether N-12)
650	CC(C)C[C@@H]1NC(=O)[C@H](Cc2cccc(F)c2)NC(=O)CSC[C@@H](C(N)=O)NC(=O)CNC(=O)CNC(=O)[C@H](CCCNC(=N)N)NC(=O)[C@H](CC(=O)O)NC(=O)[C@H](CCCCN)NC(=O)[C@@H]2CCCN2C(=O)[C@H](CCCNC(=N)N)NC(=O)[C@H](Cc2ccccc2)NC(=O)[C@H](CCCNC(=N)N)NC1=O ({CH2CO}-[Phe(3-F)]LRFRPKDRGGC-NH2; thioether N-12)
43	Cc1ccccc1C[C@@H]1NC(=O)[C@H](CCCNC(=N)N)NC(=O)[C@H](CC(C)C)NC(=O)[C@H](Cc2ccc(O)cc2)NC(=O)CSC[C@@H](C(N)=O)NC(=O)CNC(=O)CNC(=O)[C@H](CCCNC(=N)N)NC(=O)[C@H](CC(=O)O)NC(=O)[C@H](CCCCN)NC(=O)[C@@H]2CCCN2C(=O)[C@H](CCCNC(=N)N)NC1=O ({CH2CO}-YLR[Phe(2-Me)]RPKDRGGC-NH2; thioether N-12)
290000	C[C@@H]1NC(=O)[C@H](Cc2ccc(O)cc2)NC(=O)CSC[C@@H](C(N)=O)NC(=O)CNC(=O)CNC(=O)[C@H](CCCNC(=N)N)NC(=O)[C@H](CC(=O)O)NC(=O)[C@H](CCCCN)NC(=O)[C@@H]2CCCN2C(=O)[C@H](CCCNC(=N)N)NC(=O)[C@H](Cc2ccccc2)NC(=O)[C@H](CCCNC(=N)N)NC1=O ({CH2CO}-YARFRPKDRGGC-NH2; thioether N-12)
73	CC(C)C[C@@H]1NC(=O)[C@H](Cc2ccc(O)cc2)NC(=O)CSC[C@@H](C(N)=O)NC(=O)CNC(=O)CNC(=O)[C@H](CCCNC(=N)N)NC(=O)[C@H](CC(=O)O)NC(=O)[C@H](CCCCN)NC(=O)[C@@H]2CCCN2C(=O)[C@H](CCCNC(=N)N)NC(=O)[C@H](Cc2ccccc2)NC(=O)[C@H](CCCCNC(=N)N)NC1=O ({CH2CO}-YL[hArg]FRPKDRGGC-NH2; thioether N-12)
65	CC(C)C[C@@H]1NC(=O)[C@H](Cc2ccc(O)cc2)NC(=O)CSC[C@@H](C(N)=O)NC(=O)CNC(=O)CNC(=O)[C@H](CCCNC(=N)N)NC(=O)[C@H](CC(=O)O)NC(=O)[C@H](CCCCN)NC(=O)[C@@H]2CCCN2C(=O)[C@H](CCCCN)NC(=O)[C@H](Cc2ccccc2)NC(=O)[C@H](CCCNC(=N)N)NC1=O ({CH2CO}-YLRFKPKDRGGC-NH2; thioether N-12)
450	CC(C)C[C@@H]1NC(=O)[C@H](Cc2ccc(O)cc2)NC(=O)CSC[C@@H](C(N)=O)NC(=O)CNC(=O)CNC(=O)[C@H](CCC(N)=O)NC(=O)[C@H](CC(N)=O)NC(=O)[C@H](C)NC(=O)[C@@H]2CCCN2C(=O)[C@H](CCCCN)NC(=O)[C@H](CC(C)C)NC(=O)[C@H](CCCNC(=N)N)NC1=O ({CH2CO}-YLRLKPANQGGC-NH2; thioether N-12)
50	CC(C)C[C@@H]1NC(=O)[C@H](Cc2ccc(O)cc2)NC(=O)CSC[C@@H](C(N)=O)NC(=O)CNC(=O)CNC(=O)[C@H](CCCNC(=N)N)NC(=O)[C@H](C)NC(=O)[C@H](CCCCN)NC(=O)[C@@H]2CCCN2C(=O)[C@H](CCCNC(=N)N)NC(=O)[C@H](Cc2ccccc2)NC(=O)[C@H](CCCNC(=N)N)NC1=O ({CH2CO}-YLRFRPKARGGC-NH2; thioether N-12)
650	CC(C)C[C@@H]1NC(=O)[C@H](Cc2ccc(O)cc2)NC(=O)CSC[C@@H](C(N)=O)NC(=O)CNC(=O)CNC(=O)[C@H](C)NC(=O)[C@H](CC(=O)O)NC(=O)[C@H](CCCCN)NC(=O)[C@@H]2CCCN2C(=O)[C@H](CCCNC(=N)N)NC(=O)[C@H](Cc2ccccc2)NC(=O)[C@H](CCCNC(=N)N)NC1=O ({CH2CO}-YLRFRPKDAGGC-NH2; thioether N-12)
53	CC(C)C[C@@H]1NC(=O)[C@H](Cc2ccc(O)cc2)NC(=O)CSC[C@@H](C(N)=O)NC(=O)CNC(=O)CNC(=O)[C@H](CCCNC(=N)N)NC(=O)[C@H](CC(=O)O)NC(=O)[C@H](CCCCN)NC(=O)[C@@H]2CCCN2C(=O)[C@H](CCCNC(=N)N)NC(=O)[C@H](Cc2ccccc2F)NC(=O)[C@H](CCCNC(=N)N)NC1=O ({CH2CO}-YLR[Phe(2-F)]RPKDRGGC-NH2; thioether N-12)
120000	CC(C)C[C@@H]1NC(=O)[C@H](Cc2ccccc2C(F)(F)F)NC(=O)CSC[C@@H](C(N)=O)NC(=O)CNC(=O)CNC(=O)[C@H](CCCNC(=N)N)NC(=O)[C@H](CC(=O)O)NC(=O)[C@H](CCCCN)NC(=O)[C@@H]2CCCN2C(=O)[C@H](CCCNC(=N)N)NC(=O)[C@H](Cc2ccccc2)NC(=O)[C@H](CCCNC(=N)N)NC1=O ({CH2CO}-[Phe(2-CF3)]LRFRPKDRGGC-NH2; thioether N-12)
66	CC(C)C[C@@H]1NC(=O)[C@H](Cc2ccc(O)cc2)NC(=O)CSC[C@@H](C(N)=O)NC(=O)CNC(=O)CNC(=O)[C@H](CCCNC(=N)N)NC(=O)[C@H](CC(=O)O)NC(=O)[C@H](CCCCN)NC(=O)[C@@H]2CCCN2C(=O)[C@H](CCCNC(=N)N)NC(=O)[C@H](Cc2cccc(F)c2)NC(=O)[C@H](CCCNC(=N)N)NC1=O ({CH2CO}-YLR[Phe(3-F)]RPKDRGGC-NH2; thioether N-12)
2300	CC(C)C[C@@H]1NC(=O)[C@H](Cc2ccc(O)cc2)NC(=O)CSC[C@@H](C(N)=O)NC(=O)CNC(=O)CNC(=O)[C@H](CCC(N)=O)NC(=O)[C@H](CC(N)=O)NC(=O)[C@H]([C@@H](C)O)NC(=O)[C@H](C)NC(=O)[C@H](CCCCN)NC(=O)[C@H](CC(C)C)NC(=O)[C@H](CCCNC(=N)N)NC1=O ({CH2CO}-YLRLKATNQGGC-NH2; thioether N-12)
3100	CC(C)C[C@@H]1NC(=O)[C@H](Cc2cccc(C#N)c2)NC(=O)CSC[C@@H](C(N)=O)NC(=O)CNC(=O)CNC(=O)[C@H](CCCNC(=N)N)NC(=O)[C@H](CC(=O)O)NC(=O)[C@H](CCCCN)NC(=O)[C@@H]2CCCN2C(=O)[C@H](CCCNC(=N)N)NC(=O)[C@H](Cc2ccccc2)NC(=O)[C@H](CCCNC(=N)N)NC1=O ({CH2CO}-[Phe(3-CN)]LRFRPKDRGGC-NH2; thioether N-12)
120	CC(C)C[C@@H]1NC(=O)[C@H](Cc2ccc(O)cc2)NC(=O)CSC[C@@H](C(N)=O)NC(=O)CNC(=O)CNC(=O)[C@H](CCCNC(=N)N)NC(=O)[C@H](CC(=O)O)NC(=O)[C@H](CCCCN)NC(=O)[C@@H]2CCCN2C(=O)[C@H](CCCNC(=N)N)NC(=O)[C@H](Cc2ccccc2C#N)NC(=O)[C@H](CCCNC(=N)N)NC1=O ({CH2CO}-YLR[Phe(2-CN)]RPKDRGGC-NH2; thioether N-12)
587	CC(C)C[C@@H]1NC(=O)[C@H](Cc2ccc(O)cc2)NC(=O)CSC[C@@H](C(N)=O)NC(=O)CNC(=O)CNC(=O)[C@H](CCCNC(=N)N)NC(=O)[C@H](CC(=O)O)NC(=O)[C@H](CCCCN)NC(=O)[C@@H]2CCCN2C(=O)[C@H](CCCNC(=N)N)NC(=O)[C@H](Cc2ccccc2)NC(=O)[C@H](CCNC(=N)N)NC1=O ({CH2CO}-YL[Agb]FRPKDRGGC-NH2; thioether N-12)
